Results reported in the supplement of paper PMC8633005.

How the values were obtained:
Experiment in all cases: drug sensitivity score (DSS) (DSS (unitless, 0-50 scale)); higher = more sensitive (stronger viability inhibition); extreme values may be limits of the assay
Conditions in all cases: 72 h; culture: 2D
[1] = test system: SK-MEL-28
How it was run: (§1)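 Patient-derived melanoma cultures (1000–1500 cells per well) and melanoma cell lines were grown in 2D in 384-well plates holding a 527-compound oncology library. Each compound was dissolved in DMSO or water and tested at five concentrations spanning a 10,000-fold range. After 72 h at 37 °C, viability was read by CellTiter-Glo luminescence. A drug sensitivity score, a modified area-under-curve measure, was derived from dose-response curves fitted in the in-house Breeze software.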

[2] = test system: FM-MEL-3
How it was run: as §1

[3] = test system: WM165
How it was run: as §1

[4] = test system: WM852
How it was run: as §1

[5] = test system: FM-MEL-6
How it was run: as §1

[6] = test system: Bowes
How it was run: as §1

[7] = test system: FM-MEL-2
How it was run: as §1

[8] = test system: SK-MEL-2
How it was run: as §1

Row | Compound | drug sensitivity score [1] | drug sensitivity score [2] | drug sensitivity score [3] | drug sensitivity score [4] | drug sensitivity score [5] | drug sensitivity score [6] | drug sensitivity score [7] | drug sensitivity score [8]
1 | CC(C)(C)C[C@@H]1N[C@@H](C(=O)N[C@H]2CC[C@H](O)CC2)[C@H](c2cccc(Cl)c2F)[C@]12C(=O)Nc1cc(Cl)ccc12 | 0 | 16.6 | 15.9 | 0 | 0 | 2.2 | 3.1 | 0
2 | CC(C)(C)c1cc(NC(=O)Nc2ccc(Oc3ccnc4[nH]c(=O)cnc34)cc2F)n(-c2ccccc2)n1 | 10.3 | 14.5 | 12.6 | 5.3 | 4.2 | 10.7 | 11.6 | 4.5
3 | CCOc1ccn(-c2ccc(F)cc2)c(=O)c1C(=O)Nc1ccc(Oc2ccnc(N)c2Cl)c(F)c1 | 0 | 0 | 0 | 0 | 0 | 0 | 0 | 0
4 | CC[C@@H]1[C@H](F)C(=O)N[C@@H]1COc1nccc2cc(C(N)=O)c(OC)cc12 | 0 | 0.2 | 1.7 | 0.6 | 0 | 1.4 | 1.1 | 0
5 | CCc1cncnc1N1CCN(Cc2nc3ccc(C(F)(F)F)cc3[nH]2)CC1 | 0 | 1.7 | 0 | 3.3 | 0.7 | 2.1 | 0.5 | 0
6 | CCn1c(-c2nonc2N)nc2c(C#CC(C)(C)O)ncc(OC[C@H]3CCCNC3)c21 | 0 | 1.8 | 3.4 | 0 | 0 | 1 | 1 | 0
7 | CCn1c(-c2nonc2N)nc2cnc(Oc3cccc(NC(=O)c4ccc(OCCN5CCOCC5)cc4)c3)cc21 | 1.1 | 4.3 | 5.2 | 4.6 | 0.3 | 0 | 2.6 | 0
8 | CCn1c(C(=O)N(C2CC2)C2CC2)cc2c3c(ncn3C)c(Nc3cc(C)n(C)n3)nc21 | 0.4 | 0 | 0 | 0 | 0.8 | 0 | 2.3 | 0
9 | CCn1cc(-c2ccnc3[nH]c(-c4cccc(CN(C)C)c4)cc23)c(-c2ccc(NC(=O)N(C)C)cc2)n1 | 0.1 | 0 | 6 | 0 | 0 | 2.7 | 0 | 0
10 | CN(C)CC#Cc1ccc(OCCCc2sc(N3CCc4cccc(C(=O)Nc5nc6ccccc6s5)c4C3)nc2C(=O)O)c(F)c1 | 0 | 16.7 | 0.2 | 0 | 0.7 | 0.5 | 4.6 | 0
11 | CN(c1ncccc1CNc1nc(Nc2ccc3c(c2)CC(=O)N3)ncc1C(F)(F)F)S(C)(=O)=O | 4.7 | 7.1 | 9.1 | 5.3 | 5.2 | 6.4 | 3 | 0
12 | CN1CCN(C2CCC(n3cc(-c4ccc(Oc5ccccc5)cc4)c4c(N)ncnc43)CC2)CC1 (stereo not given) | 8 | 7.7 | 9.4 | 9.2 | 7.2 | 10.1 | 6.6 | 5
13 | CNC(=O)c1ccc(C)c(-n2c(C)cc(OCc3ccc(F)cc3F)c(Br)c2=O)c1 | 0 | 0 | 0 | 0 | 0 | 0 | 0 | 0
14 | CNC(=O)c1ccccc1Nc1nc(Nc2ccc3c(c2OC)CCC[C@H](N2CCN(CCO)CC2)C3)ncc1Cl | 7.9 | 8.6 | 9.2 | 7.7 | 7.6 | 8.2 | 7.2 | 4.5
15 | CNS(=O)(=O)Nc1nccc(Cc2c(C)c3ccc(Oc4ncccn4)cc3oc2=O)c1F | 3.2 | 10.7 | 3.2 | 0 | 0.2 | 0.6 | 6.3 | 4.2
16 | CNc1nc(-c2ccc3c(N)n[nH]c3c2)cc(N2C[C@@H](C(=O)NC3CCCCC3)CC[C@H]2C)n1 | 1.5 | 0 | 0.4 | 0 | 0 | 0 | 1.8 | 0
17 | CONC(=O)c1ccccc1Nc1cc(Nc2cc(C)nn2C(C)C)ncc1Cl | 0 | 1.5 | 0.1 | 0 | 0 | 0.5 | 0.2 | 0
18 | CO[C@@H](C)Cn1c(=O)n(C)c2cnc3ccc(-c4cncc(C(C)(C)O)c4)cc3c21 | 7.9 | 8.9 | 12 | 7.5 | 9.3 | 10.4 | 9.6 | 7.3
19 | COc1cc2ncnc(Oc3cccc(NC(=O)Nc4cc(C(C)(C)C(F)(F)F)on4)c3)c2cc1OC | 0 | 15 | 0 | 3.3 | 2 | 0 | 7.6 | 0
20 | COc1ccc(Cn2ccc3ccc(C(=O)NO)cc32)cc1 | 0.2 | 0.3 | 1.6 | 0.6 | 0 | 0 | 0 | 0
21 | COc1ccc2[nH]cc(/C=C3\C(=O)Nc4ccc(NC(=O)CCN5CCCCC5)cc43)c2c1 | 8.6 | 5.6 | 8.8 | 11.1 | 5 | 5.9 | 12.6 | 4.6
22 | C[C@@H](Oc1cc(-n2cnc3ccc(CN4CCN(C)CC4)cc32)sc1C(N)=O)c1ccccc1C(F)(F)F | 8.1 | 1.7 | 25.6 | 22.8 | 10 | 27.9 | 5 | 10.1
23 | C[C@@H](Oc1ccc2[nH]nc(/C=C/c3cnn(CCO)c3)c2c1)c1c(Cl)cncc1Cl | 1.3 | 2.1 | 4.3 | 3.2 | 2 | 6 | 0 | 0.3

Row | Compound | drug sensitivity score [1] | drug sensitivity score [2] | drug sensitivity score [3] | drug sensitivity score [4] | drug sensitivity score [5] | drug sensitivity score [6] | drug sensitivity score [7] | drug sensitivity score [8]
24 | C[C@@H]1CN(CC(=O)Nc2ccc3c(c2)Cc2cccc(-c4cc(=O)cc(N5CCOCC5)o4)c2S3)C[C@H](C)O1 | 3.4 | 1.2 | 1.1 | 2.6 | 1 | 2.5 | 1.5 | 0
25 | C[C@H]1C[C@@H](n2c(Nc3ccc(OC(F)(F)F)cc3)nc3cc(CCC(=O)O)ccc32)CC(C)(C)C1 | 0 | 4.5 | 0 | 0 | 0 | 0 | 0 | 0
26 | C[C@H]1Oc2cc(cnc2N)-c2c(nn(C)c2C#N)CN(C)C(=O)c2ccc(F)cc21 | 0 | 2.4 | 0.2 | 0 | 0.6 | 0.1 | 0.9 | 0
27 | Cc1c(-c2c(-c3ccc(F)o3)sc3ncnc(O[C@H](Cc4ccccc4OCc4ccnn4CC(F)(F)F)C(=O)O)c23)ccc(OCCN2CCN(C)CC2)c1Cl | 0 | 8.7 | 0 | 0 | 1.9 | 16.9 | 3.2 | 5.3
28 | Cc1c(-c2ccc(N3CCc4cccc(C(=O)Nc5nc6ccccc6s5)c4C3)nc2C(=O)O)cnn1CC12CC3CC(CC(C3)C1)C2 | 0 | 6.7 | 0 | 0 | 0 | 0 | 1.5 | 0
29 | Cc1c(Cn2c(C)nc3c(C(=O)O)cc(N4CCOCC4)cc32)cccc1C(F)(F)F | 0.3 | 0 | 0 | 0 | 0 | 0 | 0 | 0
30 | Cc1ccc(C(=O)N(CCCN)[C@@H](c2oc3cc(Cl)ccc3c(=O)c2Cc2ccccc2)C(C)C)cc1 | 0.9 | 2.1 | 4.3 | 4.5 | 5.4 | 7.7 | 3.9 | 10
31 | Cc1cccc(CC(=O)N2CCc3c2ccc(-c2cn(C)c4ncnc(N)c24)c3F)n1 | 0 | 0.9 | 0 | 3.7 | 0.1 | 0 | 0 | 0
32 | Cc1nc(Nc2n[nH]c3c2CN(C(=O)N[C@H](CN(C)C)c2ccccc2)C3(C)C)c2sccc2n1 | 18.4 | 17.5 | 26.9 | 9.9 | 14.8 | 18.6 | 11.8 | 12.3
33 | Cc1nn(C)c(COc2ccc(N3CCN(S(=O)(=O)N(C)C)CC3)cc2)c1-c1cccc2c(CCCOc3cccc4ccccc34)c(C(=O)O)n(CCN3CCOCC3)c12 | 5.6 | 7.8 | 6.4 | 5.4 | 7.8 | 6.7 | 8 | 4.6
34 | Cn1cc(-c2ccc(F)c(C(F)(F)F)c2)nc1C1CCN(c2ncnc3[nH]ncc23)CC1 | 0 | 0 | 0 | 0 | 0 | 0 | 0 | 0
35 | NCC(=O)Nc1ccc(-n2nc(C(F)(F)F)cc2-c2ccc3c(ccc4ccccc43)c2)cc1 | 2.5 | 0 | 3.4 | 0 | 0.4 | 0 | 0.4 | 0
36 | NC[C@@](O)(c1ccc(Cl)cc1)c1ccc(-c2cn[nH]c2)cc1 | 1.7 | 0 | 2.1 | 0.6 | 4 | 0 | 1.4 | 0
37 | Nc1nccc(-c2c(-c3ccc(F)cc3)ncn2C2CCCCC2)n1 | 0 | 0 | 0 | 0 | 0 | 0 | 0 | 0
38 | Nc1ncnc2c1c(COc1cccc(Cl)c1)nn2C1CCOCC1 | 0 | 0 | 0 | 0.8 | 0.7 | 0 | 0.2 | 0
39 | O=C(NC[C@H](O)CN1CCc2ccccc2C1)c1cc(NC2COC2)ncn1 | 0.3 | 1.4 | 0 | 0 | 0.5 | 4.7 | 0.4 | 0
40 | O=C(NCc1ccncc1)C12CC3CC(C1)CC(c1ccc(Cl)cc1)(C3)C2 | 2.6 | 7.6 | 6.1 | 4.3 | 1.2 | 5.2 | 2 | 2
41 | O=C(NOC[C@H](O)CO)c1ccc(F)c(F)c1Nc1ccc(I)cc1F | 18 | 26.8 | 18.6 | 3.8 | 11.4 | 0.5 | 14.5 | 11.1
42 | O=C(O)c1ccc(-c2c[nH]c3ncc(-c4ccccc4)cc23)cc1C1CCCC1 | 0.7 | 0 | 1.2 | 0 | 0 | 0 | 0 | 0
43 | O=C(O)c1ccc(CN2CCC(CN[C@@H]3C[C@H]3c3ccccc3)CC2)cc1 | 0 | 0 | 0 | 0 | 0 | 0 | 0 | 0
44 | O=C1Cc2cc(C(=O)NC3C[C@H]4CC[C@@H](C3)N4S(=O)(=O)CC3CCN(CCCC(F)(F)F)CC3)c(Cl)cc2N1 (stereo not given in full) | 0.2 | 0.7 | 0 | 0 | 0 | 0.3 | 0 | 0
45 | O=c1[nH]c(C2CCCN2)nc2c1oc1ccc(Cl)cc12 (stereo not given) | 0 | 0 | 0.7 | 0 | 0 | 0 | 0.5 | 0
